For assay [1], the system named is mGluR1 (GRM1) gene expression. Kind of assay: mGluR1 gene expression by real-time PCR. The assay is classed as cell-based, rat. The conditions noted are these: 25 µM, 24 or 48 h, vs control neurons. The procedure:
(§1) Total RNA was extracted using an ABI 6100 Nucleic Acid PrepStation according to the manufacturer’s protocol (Applied Biosystems Inc., Foster City, CA, USA). Total RNA from cells was isolated and stored at −80 °C. The quality of isolated RNA was estimated by the ratio A260/A280 and was in the range of 1.9–2.1. RNA integrity was evaluated by agarose gel electrophoresis according to MIQE guidelines using the “bleach gel” method. RNA concentrations were determined from the A260. One microgram of total RNA was reverse transcribed using Applied Biosystems High-Capacity cDNA Archive Kit.
(§2) To assess relative gene expression in neurons, quantitative real-time RT-PCR analysis was performed with an Applied Biosystems Prism 7500 Fast Sequence Detection System using TaqMan® universal PCR master mix according to the manufacturer’s specifications. […] Levels of RNA expression were determined using the 7500 Fast System SDS software version 1.3.1 (Applied Biosystems) according to the 2^−ΔΔCt method. […] The results from three independent repeat assays, performed in different plates each using different cDNA’s from the cultures analyzed, were averaged to produce a single mean quantity value for each mRNA.

The next assay deals with PLCβ1 gene expression. Kind of assay: PLCβ1 gene expression by real-time RT-PCR. The settings on record: 25 µM. The assay is classed as cell-based, rat. The procedure: as §1, §2
For orientation: Real-time PCR tracks product formation cycle by cycle.

Another assay relates to CREM gene expression. Kind of assay: CREM gene expression by real-time PCR. The settings on record: 25 µM, 24 or 48 h. The format is cell-based, rat. The procedure:
as §1, §2

The next assay has as its target T1, A2AR (Rattus norvegicus, UniProt P30543).
T1 construct: endogenous in cells; host or cells: rat primary cortical neurons (intact)
Put plainly: [3H]ZM241385 radioligand binding in intact cortical neurons. The settings on record: for A2AR Bmax: [3H]ZM241385 saturation binding. The procedure: Concerning adenosine receptor assessment by radioligand binding, [^3H]DPCPX and [^3H]ZM241385 were employed as selective A1R and A2AR radioligands, as described previously, to determine A1R and A2AR density, respectively. Briefly, primary cortical neurons growth in 24-well plates were washed with serum-free DMEM and pre-incubated with 2 U/mL ADA at 37 °C for 30 min to remove endogenous adenosine. After incubation, the radioligands [^3H]DPCPX (1–20 nM) or [^3H] ZM241385 (1–20 nM) were added in the absence or the presence of CPA in a concentration 10^4 times higher than the radioligand, to obtain non-specific binding to A1R, or 5 mM theophylline, to obtain non-specific binding to A2AR. A specific adenosine uptake inhibitor (1 µM dipyridamole) was added to the reaction mixture to block adenosine receptor ligands’ binding to adenosine transporters. After incubation at 25 °C for 2 h in a final volume of 250 µL, cells were washed with 500 µL of ice-cold buffer and disrupted with 0.2% SDS. Well contents were then transferred to vials and a scintillation liquid mixture was added to measure radioactivity. Two wells from each plate were reserved for protein concentration measurement.

Assay [2] concerns mGluR5 (GRM5) gene expression. Kind of assay: mGluR5 gene expression by real-time PCR. The settings on record: 25 µM, 24 or 48 h, vs control neurons. The assay is classed as cell-based, rat. The procedure: as §1, §2
Assay [3] has as its system A2AR (ADORA2A) gene expression. Put plainly: A2AR gene expression by real-time PCR. The assay is classed as cell-based, rat. The settings on record: 25 µM, 24 or 48 h. The procedure:
as §1, §2

Another assay deals with rat cortical neurons. Kind of assay: MTT reduction cell viability assay after Aβ exposure. The format is cell-based. The settings on record: for decrease in cell viability: MTT reduction, vs control. The procedure:
Aβ25-35 and Aβ1-42 were water-soluble peptides, however, while Aβ25-35, the functional domain of Aβ required for both neurotrophic and neurotoxic effects, was directly added to neuronal cultures after its solubilisation, Aβ1-42 was solved in water and maintained for 24 h at 37 °C before its addition to promote its aggregation. To test the effect of mGluR ligands on cell death induced by Aβ in neuronal cultures, these drugs were added 30 min before the addition of Aβ25-35 and maintained during Aβ exposure. Unless otherwise indicated, all chemicals were dissolved in water.
Cell viability was determined on 96-well plates using an in vitro toxicology assay kit based on a mitochondrial-dependent reaction that transforms 3-[4,5-dimetylthiazol-2-yl]-2,5-diphenyltetrazolium bromide (MTT) into formazan crystals. Briefly, at the end of treatments, cells were incubated in culture medium with MTT solution (5 mg/mL) at 37 °C for 3 h. After incubation, MTT solubilization solution (10% Triton X-100 plus 0.1 M HCl in isopropanol anhydrous) was added into the wells to dissolve formazan crystals and the absorbance of each well was measured at 570 nm and 690 nm, according to the manufacturer’s instructions.
A general note: Formazan colour is commonly taken as a measure of viable cells.

Assay [4] concerns A1R (ADORA1) gene expression. Kind of assay: A1R gene expression by real-time PCR. The format is cell-based, rat. The settings on record: 25 µM, 24 or 48 h. The procedure: as §1, §2
The mark [5] stands for this setting: neurons exposed to 25 µM for 24 h.
Setting [6] is: neurons exposed to 25 µM for 48 h.

We go through one sequence from publication PMC8234864, “Early Effects of the Soluble Amyloid β25-35 Peptide in Rat Cortical Neurons: Modulation of Signal Transduction Mediated by Adenosine and Group I Metabotropic Glutamate Receptors” (International Journal of Molecular Sciences, 2021).

Where no end group is shown, it is not given here.

T1 sequence (P30543 whole entry): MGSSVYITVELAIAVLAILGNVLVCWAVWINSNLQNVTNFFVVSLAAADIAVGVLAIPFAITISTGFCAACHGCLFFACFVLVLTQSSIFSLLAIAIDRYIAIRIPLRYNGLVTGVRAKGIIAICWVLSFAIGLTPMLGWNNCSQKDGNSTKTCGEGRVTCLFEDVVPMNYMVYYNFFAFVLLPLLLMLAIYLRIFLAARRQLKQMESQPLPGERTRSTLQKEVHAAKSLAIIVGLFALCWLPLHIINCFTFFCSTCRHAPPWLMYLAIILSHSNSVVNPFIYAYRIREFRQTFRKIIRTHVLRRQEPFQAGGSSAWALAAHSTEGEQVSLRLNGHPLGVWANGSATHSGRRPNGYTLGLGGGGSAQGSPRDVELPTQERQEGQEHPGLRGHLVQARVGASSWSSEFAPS

The term Kd denotes the free concentration of one partner at which half of the binding sites on the other are occupied at equilibrium, for simple one-to-one binding. Consider GSNKGAIIGLM [Aβ25-35], for which, in assay [1], the mGluR1 gene expression entry is “increase”. Besides, the “PLCβ1 gene expression decrease over control value” in the assay on PLCβ1 gene expression (24 h) stood at 28%; in the assay with PLCβ1 gene expression (48 h) it was 33%. For the same sequence, the CREM gene expression entry with CREM gene expression is “decrease”. For the same sequence, at A2AR (25 µM, 24 or 48 h), the “A2AR affinity (1/KD), change vs control” value was “no significant variation”. Further, the “Total A2AR density (Bmax), change vs control” value on A2AR (25 µM, 24 h) is reported as “not altered”. The “Total A2AR density (Bmax) increase over control value” on A2AR (25 µM, 48 h) came out at 80%. The dissociation constant (Kd) at A2AR (setting [5]) is 10.3 ± 1.22 nM; on A2AR (setting [6]), 14 ± 4.69 nM. Besides, the “A2AR Bmax” value on A2AR (setting [5]) was determined as 557 ± 56 fmol/mg prot; at A2AR (setting [6]), 1178 ± 43 fmol/mg prot. For the same sequence, in assay [2], the mGluR5 gene expression entry is “did not present any significant variation”. For the same sequence, the A2AR gene expression result in assay [3] is recorded as “significantly increased”. In addition, the “decrease in cell viability” value is around 40% in the assay on rat cortical neurons (25 µM, 24 h) and around 40% in the assay on rat cortical neurons (50 µM, 24 h). For the same sequence, in the assay with rat cortical neurons (25 µM, 48 h, MTT), the cell viability entry is “decrease in cell viability”. Moreover, the “cell viability, concentration dependence” value in the assay on rat cortical neurons (1, 10, 25 and 50 µM, 24 h, MTT) is recorded as “concentration-dependent decrease in cell viability”. Also, the A1R gene expression entry in assay [4] is given as “significantly increased”.
